Data: paper PMC11995724, “Antibiotic target discovery by integrated phenotypic and activity-based profiling of electrophilic fragments” (Cell chemical biology, 2025)
Where a name gives a salt, the structure may show the parent alone.

Assay: in vitro
Conditions: human, hek293t cells

Compound	viability at 48 h, 25 µM
Cc1cccc(NC(=O)c2ccccc2NC(=O)CCl)c1 [4-C10, 2-(2-chloroacetamido)-N-(3-methylphenyl)benzamide]	-0.0841%
O=C(CCl)Nc1ccc(N=Nc2ccccc2)cc1 [4-C11, 2-chloro-N-[4-(2-phenyldiazen-1-yl)phenyl]acetamide]	0.339%
CC(Cl)C(=O)Nc1ccc(Cl)c(C(F)(F)F)c1 (stereo not shown) [4-C12, 2-chloro-N-[4-chloro-3-(trifluoromethyl)phenyl]propanamide]	51%
CSc1nsc(NC(=O)CCl)n1 [4-C13, 2-chloro-N-[3-(methylsulfanyl)-1,2,4-thiadiazol-5-yl]acetamide]	63.6%
CC(Cl)C(=O)Nc1ccc(Cl)cc1F (stereo not shown) [4-C14, 2-chloro-N-(4-chloro-2-fluorophenyl)propanamide]	58.6%
COc1ccc(N(CC(F)(F)F)C(=O)CCl)cc1 [4-C15, 2-chloro-N-(4-methoxyphenyl)-N-(2,2,2-trifluoroethyl)acetamide]	0.659%
CC(C)c1ccc(-c2cc(NC(=O)CCl)n(-c3ccccc3)n2)cc1 [4-C16, 2-chloro-N-{1-phenyl-3-[4-(propan-2-yl)phenyl]-1H-pyrazol-5-yl}acetamide]	-0.013%
O=C(CCl)N(Cc1ccccc1)c1nc2c(s1)CCCC2 [4-C17, N-benzyl-2-chloro-N-(4,5,6,7-tetrahydro-1,3-benzothiazol-2-yl)acetamide]	0.212%
COc1ccccc1N(CC(F)(F)F)C(=O)CCl [4-C18, 2-chloro-N-(2-methoxyphenyl)-N-(2,2,2-trifluoroethyl)acetamide]	7.84%
O=C(CCl)N1CCN(S(=O)(=O)c2cccc([N+](=O)[O-])c2)CC1 [4-C19, 2-chloro-1-[4-(3-nitrobenzenesulfonyl)piperazin-1-yl]ethan-1-one]	1.45%
CCc1ccc(C(NC(=O)CCl)c2cccc(F)c2)cc1 (stereo not shown) [4-C20, 2-chloro-N-[(4-ethylphenyl)(3-fluorophenyl)methyl]acetamide]	0.508%
O=C(CCl)Nc1ccc(C(=O)O)cc1[N+](=O)[O-] [4-C21, 4-(2-chloroacetamido)-3-nitrobenzoic acid]	63.3%
O=C(CCl)N1N=C(c2ccsc2)CC1c1cccc(F)c1 (stereo not shown) [4-C22, 2-chloro-1-[5-(3-fluorophenyl)-3-(thiophen-3-yl)-4,5-dihydro-1H-pyrazol-1-yl]ethan-1-one]	0.063%
CN(CC(=O)Nc1ccc(Cl)cc1)C(=O)CCl [4-D03, 2-chloro-N-{[(4-chlorophenyl)carbamoyl]methyl}-N-methylacetamide]	0.468%
Cc1cccc(NC(=O)CCl)c1C [4-D04, 2-chloro-N-(2,3-dimethylphenyl)acetamide]	1.62%
CN(CC(=O)Nc1ccccc1Cl)C(=O)CCl [4-D05, 2-chloro-N-{[(2-chlorophenyl)carbamoyl]methyl}-N-methylacetamide]	0.034%
CCn1c2ccccc2c2cc(NC(=O)CCl)ccc21 [4-D06, 2-chloro-N-(9-ethyl-9H-carbazol-3-yl)acetamide]	9.48%
CC1CCc2c(sc(NC(=O)CCl)c2C(=O)OC(C)C)C1 (stereo not shown) [4-D07, propan-2-yl 2-(2-chloroacetamido)-6-methyl-4,5,6,7-tetrahydro-1-benzothiophene-3-carboxylate]	73.7%
O=C(CCl)Nc1cccc(S(=O)(=O)NC2=NCCCCC2)c1 [4-D08, N-{3-[(azepan-2-ylidene)sulfamoyl]phenyl}-2-chloroacetamide]	1.32%
Cc1c(C#N)c(NC(=O)CCl)n(Cc2ccco2)c1C [4-D09, 2-chloro-N-{3-cyano-1-[(furan-2-yl)methyl]-4,5-dimethyl-1H-pyrrol-2-yl}acetamide]	-0.0889%
Cc1ccc(Cl)c(NC(=O)CCl)c1Cl [4-D10, 2-chloro-N-(2,6-dichloro-3-methylphenyl)acetamide]	1.7%
CC(Cl)C(=O)Nc1ccccc1Cl (stereo not shown) [4-D11, 2-chloro-N-(2-chlorophenyl)propanamide]	97.8%
CC(C)CN(C(=O)CCl)C1CCS(=O)(=O)C1 (stereo not shown) [4-D12, 2-chloro-N-(1,1-dioxo-1lambda6-thiolan-3-yl)-N-(2-methylpropyl)acetamide]	2.44%
CC(C)c1cc(O)nc(N2CCC(NC(=O)CCl)C2)n1 (stereo not shown) [4-D13, 2-chloro-N-{1-[4-hydroxy-6-(propan-2-yl)pyrimidin-2-yl]pyrrolidin-3-yl}acetamide]	2.02%
CC(Cl)C(=O)NCCc1cccs1 (stereo not shown) [4-D14, 2-chloro-N-[2-(thiophen-2-yl)ethyl]propanamide]	111%
COc1ccc(NC(=O)CCl)cc1S(=O)(=O)N1CCOCC1 [4-D15, 2-chloro-N-[4-methoxy-3-(morpholine-4-sulfonyl)phenyl]acetamide]	0.627%
Cc1ccc(NC(=O)CN2CCN(C(=O)CCl)CC2)cc1 [4-D16, 2-[4-(2-chloroacetyl)piperazin-1-yl]-N-(4-methylphenyl)acetamide hydrochloride]	0.854%
CC(Cl)C(=O)Nc1cc(Cl)cc(Cl)c1 (stereo not shown) [4-D17, 2-chloro-N-(3,5-dichlorophenyl)propanamide]	67.8%

Compound	viability at 48 h, 25 µM
O=C(CCl)NCC(=O)Nc1ccc(F)c(F)c1F [4-D18, 2-chloro-N-{[(2,3,4-trifluorophenyl)carbamoyl]methyl}acetamide]	2.12%
Cc1cccc(Cc2cnc(NC(=O)C(C)Cl)s2)c1 (stereo not shown) [4-D19, 2-chloro-N-{5-[(3-methylphenyl)methyl]-1,3-thiazol-2-yl}propanamide]	74.1%
CC(Cl)C(=O)NCC(=O)Nc1ccc(F)c(F)c1F (stereo not shown) [4-D20, 2-chloro-N-{[(2,3,4-trifluorophenyl)carbamoyl]methyl}propanamide]	118%
Cc1cccc(NC(=O)NC(=O)CCl)c1C [4-D21, 3-(2-chloroacetyl)-1-(2,3-dimethylphenyl)urea]	0.759%
O=C(CCl)NCc1cccc(NC(=O)C2CC2)c1 [4-D22, N-{3-[(2-chloroacetamido)methyl]phenyl}cyclopropanecarboxamide]	1.24%
O=C(CCl)Nc1ccc(Cl)cc1F [4-E03, 2-chloro-N-(4-chloro-2-fluorophenyl)acetamide]	0.433%
CC(C)CNC(=O)c1ccccc1NC(=O)CCl [4-E04, 2-(2-chloroacetamido)-N-(2-methylpropyl)benzamide]	0.855%
COc1ccc(S(=O)(=O)N(C)C)cc1NC(=O)CCl [4-E05, 2-chloro-N-[5-(dimethylsulfamoyl)-2-methoxyphenyl]acetamide]	0.891%
CN(C(=O)CCl)c1c(N)n(Cc2ccccc2)c(=O)[nH]c1=O [4-E06, N-(6-amino-1-benzyl-2,4-dioxo-1,2,3,4-tetrahydropyrimidin-5-yl)-2-chloro-N-methylacetamide]	22.8%
Cc1c(NC(=O)CCl)cccc1[N+](=O)[O-] [4-E07, 2-chloro-N-(2-methyl-3-nitrophenyl)acetamide]	1.23%
CC(Cl)C(=O)Nc1nc(-c2cccc([N+](=O)[O-])c2)cs1 (stereo not shown) [4-E08, 2-chloro-N-[4-(3-nitrophenyl)-1,3-thiazol-2-yl]propanamide]	59.7%
CCN(CC)S(=O)(=O)c1cc(NC(=O)CCl)ccc1C [4-E09, 2-chloro-N-[3-(diethylsulfamoyl)-4-methylphenyl]acetamide]	0.544%
CSC1=C(C#N)C2(CCCCC2)C(C#N)=C(NC(=O)CCl)N1 [4-E10, 2-chloro-N-[1,5-dicyano-4-(methylsulfanyl)-3-azaspiro[5.5]undeca-1,4-dien-2-yl]acetamide]	0.534%
CSc1ccccc1NC(=O)CCl [4-E11, 2-chloro-N-[2-(methylsulfanyl)phenyl]acetamide]	0.595%
CCn1c2ccccc2c2cc(NC(=O)C(C)Cl)ccc21 (stereo not shown) [4-E12, 2-chloro-N-(9-ethyl-9H-carbazol-3-yl)propanamide]	55.6%
CC(C)C(NC(=O)CCl)c1ccc(F)cc1 (stereo not shown) [4-E13, 2-chloro-N-[1-(4-fluorophenyl)-2-methylpropyl]acetamide]	1.68%
CC(Cl)C(=O)N1CCN(c2ccccc2)CC1 (stereo not shown) [4-E14, 2-chloro-1-(4-phenylpiperazin-1-yl)propan-1-one hydrochloride]	66.3%
COc1ccc(NC(=O)CCl)cc1S(=O)(=O)N(C)C [4-E15, 2-chloro-N-[3-(dimethylsulfamoyl)-4-methoxyphenyl]acetamide]	0.774%
O=C(CCl)N1CCCSc2ccccc21 [4-E16, 2-chloro-1-(2,3,4,5-tetrahydro-1,5-benzothiazepin-5-yl)ethan-1-one]	0.703%
CCOC(=O)c1ccc(NC(=O)CCl)cc1 [4-E17, ethyl 4-(2-chloroacetamido)benzoate]	0.753%
O=C(CCl)NS(=O)(=O)c1ccc(Cl)cc1 [4-E18, 2-chloro-N-(4-chlorobenzenesulfonyl)acetamide]	79.9%
CN(CC(=O)Nc1ccc(Cl)c(C(F)(F)F)c1)C(=O)CCl [4-E19, 2-chloro-N-({[4-chloro-3-(trifluoromethyl)phenyl]carbamoyl}methyl)-N-methylacetamide]	0.379%
COC(=O)c1c(NC(=O)CCl)sc(Cl)c1-c1ccccc1 [4-E20, methyl 5-chloro-2-(2-chloroacetamido)-4-phenylthiophene-3-carboxylate]	0.576%
CC(C)OC(=O)c1c(NC(=O)CCl)sc2c1CCCC2 [4-E21, propan-2-yl 2-(2-chloroacetamido)-4,5,6,7-tetrahydro-1-benzothiophene-3-carboxylate]	112%
O=C(CCl)N1N=C(c2cccc(F)c2)CC1c1cccs1 (stereo not shown) [4-E22, 2-chloro-1-[3-(3-fluorophenyl)-5-(thiophen-2-yl)-4,5-dihydro-1H-pyrazol-1-yl]ethan-1-one]	0.0972%
COc1ccc(CN(C)C(=O)CCl)cc1F [4-F03, 2-chloro-N-[(3-fluoro-4-methoxyphenyl)methyl]-N-methylacetamide]	0.725%
CCc1cccc(NC(=O)CCl)c1 [4-F04, 2-chloro-N-(3-ethylphenyl)acetamide]	0.569%
